Laboratory results published in ChEMBL document CHEMBL1201862, “PubChem BioAssay data set” (2004).
Active and inactive are the calls of the source.

What was measured:
[1] = growth suppression of PTEN-null colon cells, dose response, cell-based, HCT116 PTEN knockout (AID 1047); assay type: functional;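 also: HCT116 colon tumor cells with PTEN knocked out; cells exposed to compound for 60 hours before readout; potency for loss of cell viability measured by luminescence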
[2] = molecular target: T1, DNA repair and recombination protein RAD54-like (Homo sapiens, UniProt Q92698); experiment: inhibitors of human RAD54 branch migration, confirmation, biochemical, fluorescence, cherry-picked samples, dose series (AID 651657); assay type: functional
T1 sequence (Q92698 whole entry): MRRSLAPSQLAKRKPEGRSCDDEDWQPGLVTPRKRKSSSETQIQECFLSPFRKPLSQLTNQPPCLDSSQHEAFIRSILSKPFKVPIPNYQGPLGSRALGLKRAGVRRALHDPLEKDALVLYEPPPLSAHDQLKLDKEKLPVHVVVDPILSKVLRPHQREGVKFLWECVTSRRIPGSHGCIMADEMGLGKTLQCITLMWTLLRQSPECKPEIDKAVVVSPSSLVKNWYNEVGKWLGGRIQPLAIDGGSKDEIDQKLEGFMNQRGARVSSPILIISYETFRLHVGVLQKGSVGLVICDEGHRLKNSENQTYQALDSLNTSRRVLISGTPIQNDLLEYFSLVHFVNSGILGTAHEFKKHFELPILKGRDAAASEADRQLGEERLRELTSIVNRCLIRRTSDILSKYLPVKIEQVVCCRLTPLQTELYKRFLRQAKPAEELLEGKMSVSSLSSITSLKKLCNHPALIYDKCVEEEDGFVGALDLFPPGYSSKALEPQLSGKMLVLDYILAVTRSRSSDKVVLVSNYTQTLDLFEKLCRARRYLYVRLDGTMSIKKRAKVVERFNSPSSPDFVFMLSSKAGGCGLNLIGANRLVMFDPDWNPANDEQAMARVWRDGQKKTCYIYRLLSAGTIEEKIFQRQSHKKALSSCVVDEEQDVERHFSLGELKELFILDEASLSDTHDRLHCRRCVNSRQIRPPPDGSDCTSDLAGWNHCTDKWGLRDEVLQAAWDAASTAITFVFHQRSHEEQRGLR

[3] = cytotoxicity toward NIH3T3 fibroblasts, dose response, counter-screen, cell-based, ATP luminescence, mouse fibroblasts (AID 2010); assay type: functional;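 also: cells exposed to compound for about 90 hours before reading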
CAAX prenyl protease 1 = molecular target: T2, CAAX prenyl protease 1 (Saccharomyces cerevisiae S288c, UniProt P47154); experiment: Ste24 protease inhibitors, dose response, biochemical, S. cerevisiae, plate reader, cherry-pick (AID 488815)
T2 sequence (P47154 whole entry): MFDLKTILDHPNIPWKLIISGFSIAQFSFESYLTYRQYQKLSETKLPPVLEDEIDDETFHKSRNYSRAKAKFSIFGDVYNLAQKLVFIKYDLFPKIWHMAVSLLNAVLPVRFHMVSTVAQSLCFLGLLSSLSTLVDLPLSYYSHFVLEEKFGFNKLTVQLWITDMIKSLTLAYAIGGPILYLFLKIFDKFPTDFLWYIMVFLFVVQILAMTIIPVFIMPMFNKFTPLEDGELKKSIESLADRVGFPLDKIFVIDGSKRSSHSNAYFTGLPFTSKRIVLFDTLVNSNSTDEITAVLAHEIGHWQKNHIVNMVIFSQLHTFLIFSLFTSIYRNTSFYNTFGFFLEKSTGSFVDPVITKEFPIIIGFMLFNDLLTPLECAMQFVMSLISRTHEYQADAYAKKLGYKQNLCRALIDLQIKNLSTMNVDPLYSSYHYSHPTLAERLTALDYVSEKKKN

[4] = inhibitors of intracellular T. cruzi replication, confirmation, NIH3T3 host cells, beta-gal luminescence (AID 2044); assay type: functional, cell-based;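 also: intracellular parasites grown in NIH/3T3 mouse fibroblasts as host cells; luminescent beta-galactosidase reporter signal from transgenic T. cruzi replicating inside host cells; inhibitors lower the luminescence signal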
[5] = NIH-3T3 fibroblast cytotoxicity, dose response, cytotoxicity control, cell-based, fluorescence, Alamar Blue, secondary assay (AID 2327); assay type: functional;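 also: NIH-3T3 mouse fibroblasts cultured with fluconazole at 8 µg/mL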
[6] = C. albicans growth with fluconazole, confirmation, fluorescence, retest (AID 2467); assay type: functional, cell-based
[7] = growth suppression of beta-catenin-knockout colon cells, dose response, cell-based, HCT116, human colon tumor (AID 1045); assay type: functional;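 also: HCT116 colon tumor cells with beta catenin knocked out; cells exposed to compound for 60 hours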
[8] = Counterscreen for AddAB inhibitors: absorbance-based bacterial cell-based high throughput dose response assay for inhibitors of bacterial viability. [Related pubchem assays (depositor defined):AID435030, AID449728, AID449731, AID488942, AID488955, AID488956]; assay type: functional
Exodeoxyribonuclease V = molecular target: T3, Exodeoxyribonuclease V (Escherichia coli (strain K12), UniProt P04993+P07648+P08394); experiment: E. coli RecBCD inhibitors, dose response, counter-screen for AddAB inhibitor project, absorbance, V66 E. coli, mutant T4 phage (AID 492957); assay type: functional, cell-based, Escherichia coli str. K-12 substr. MG1655
T3 sequence (P04993 whole entry): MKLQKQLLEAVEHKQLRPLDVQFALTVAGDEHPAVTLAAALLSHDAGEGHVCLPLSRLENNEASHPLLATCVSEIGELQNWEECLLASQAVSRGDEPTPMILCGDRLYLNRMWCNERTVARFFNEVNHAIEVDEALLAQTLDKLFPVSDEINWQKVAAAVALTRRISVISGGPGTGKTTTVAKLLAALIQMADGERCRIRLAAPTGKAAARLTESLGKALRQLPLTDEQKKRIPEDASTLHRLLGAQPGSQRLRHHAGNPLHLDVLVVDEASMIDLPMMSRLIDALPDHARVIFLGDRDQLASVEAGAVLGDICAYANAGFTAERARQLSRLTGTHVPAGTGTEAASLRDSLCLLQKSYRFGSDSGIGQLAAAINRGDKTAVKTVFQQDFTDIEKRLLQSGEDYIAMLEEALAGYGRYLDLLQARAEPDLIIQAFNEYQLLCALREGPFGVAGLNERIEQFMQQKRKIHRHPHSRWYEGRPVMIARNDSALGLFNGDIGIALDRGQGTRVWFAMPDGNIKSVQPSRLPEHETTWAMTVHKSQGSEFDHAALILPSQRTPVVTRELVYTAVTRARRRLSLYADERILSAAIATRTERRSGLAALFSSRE
T3 sequence (P07648 whole entry): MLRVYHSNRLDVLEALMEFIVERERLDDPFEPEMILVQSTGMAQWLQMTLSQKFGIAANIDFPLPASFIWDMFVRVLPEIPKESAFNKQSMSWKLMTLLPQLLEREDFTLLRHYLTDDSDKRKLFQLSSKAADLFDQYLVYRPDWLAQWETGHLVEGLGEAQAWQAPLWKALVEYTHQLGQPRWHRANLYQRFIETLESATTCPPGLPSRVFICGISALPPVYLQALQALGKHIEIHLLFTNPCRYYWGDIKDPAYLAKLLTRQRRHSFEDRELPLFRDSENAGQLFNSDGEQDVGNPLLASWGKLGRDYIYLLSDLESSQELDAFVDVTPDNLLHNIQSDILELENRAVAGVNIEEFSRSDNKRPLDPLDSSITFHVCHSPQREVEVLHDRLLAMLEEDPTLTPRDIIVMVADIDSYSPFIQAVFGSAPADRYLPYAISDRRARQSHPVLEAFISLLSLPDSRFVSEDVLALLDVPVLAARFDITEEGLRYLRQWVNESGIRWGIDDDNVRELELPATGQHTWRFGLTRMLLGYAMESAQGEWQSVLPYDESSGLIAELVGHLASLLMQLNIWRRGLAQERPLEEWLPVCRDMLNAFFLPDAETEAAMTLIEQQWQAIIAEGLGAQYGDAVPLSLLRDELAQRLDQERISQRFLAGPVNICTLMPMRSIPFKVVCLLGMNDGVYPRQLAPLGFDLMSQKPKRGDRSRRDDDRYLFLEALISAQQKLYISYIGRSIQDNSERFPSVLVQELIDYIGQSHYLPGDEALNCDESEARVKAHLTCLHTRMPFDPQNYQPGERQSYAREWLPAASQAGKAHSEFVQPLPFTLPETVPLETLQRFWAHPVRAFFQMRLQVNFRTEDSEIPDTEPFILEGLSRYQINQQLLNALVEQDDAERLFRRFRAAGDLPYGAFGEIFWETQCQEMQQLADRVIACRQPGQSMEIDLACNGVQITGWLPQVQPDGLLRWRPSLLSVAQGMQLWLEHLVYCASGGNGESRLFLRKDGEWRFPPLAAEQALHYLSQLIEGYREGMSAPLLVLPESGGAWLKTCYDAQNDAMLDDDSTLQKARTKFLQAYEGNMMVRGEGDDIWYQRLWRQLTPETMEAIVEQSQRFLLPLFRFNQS
T3 sequence (P08394 whole entry): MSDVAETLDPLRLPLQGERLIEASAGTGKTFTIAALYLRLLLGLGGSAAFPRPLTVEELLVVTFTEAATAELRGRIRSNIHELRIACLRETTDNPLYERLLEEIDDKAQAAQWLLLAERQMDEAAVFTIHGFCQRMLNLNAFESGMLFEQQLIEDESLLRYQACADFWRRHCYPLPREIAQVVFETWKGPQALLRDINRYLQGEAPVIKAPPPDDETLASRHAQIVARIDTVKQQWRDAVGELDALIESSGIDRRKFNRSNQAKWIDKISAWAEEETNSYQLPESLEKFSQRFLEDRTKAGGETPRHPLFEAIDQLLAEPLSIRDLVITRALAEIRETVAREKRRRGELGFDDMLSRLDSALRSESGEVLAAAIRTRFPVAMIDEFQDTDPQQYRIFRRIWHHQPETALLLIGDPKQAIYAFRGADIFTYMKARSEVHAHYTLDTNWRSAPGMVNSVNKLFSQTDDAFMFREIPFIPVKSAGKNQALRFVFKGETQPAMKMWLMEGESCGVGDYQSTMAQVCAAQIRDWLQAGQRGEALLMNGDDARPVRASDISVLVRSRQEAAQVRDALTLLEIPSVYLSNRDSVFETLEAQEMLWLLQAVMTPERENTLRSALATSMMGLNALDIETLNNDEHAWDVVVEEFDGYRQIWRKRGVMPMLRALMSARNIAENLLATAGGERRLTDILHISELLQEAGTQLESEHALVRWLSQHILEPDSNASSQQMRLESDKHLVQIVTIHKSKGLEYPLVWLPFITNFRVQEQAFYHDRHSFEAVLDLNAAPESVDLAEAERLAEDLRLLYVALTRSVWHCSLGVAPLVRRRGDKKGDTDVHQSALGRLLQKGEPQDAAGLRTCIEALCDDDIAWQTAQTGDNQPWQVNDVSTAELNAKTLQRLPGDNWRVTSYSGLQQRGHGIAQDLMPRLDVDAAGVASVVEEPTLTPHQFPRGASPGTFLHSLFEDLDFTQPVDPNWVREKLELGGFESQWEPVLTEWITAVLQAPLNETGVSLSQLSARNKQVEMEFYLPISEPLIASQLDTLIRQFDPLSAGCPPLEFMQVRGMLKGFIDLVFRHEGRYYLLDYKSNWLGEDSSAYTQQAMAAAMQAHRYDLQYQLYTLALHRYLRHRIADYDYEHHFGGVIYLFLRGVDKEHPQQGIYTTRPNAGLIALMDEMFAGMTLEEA

Structure (SMILES)	EC50 [1]	AC50 [2]	EC50 [3]	AC50 (CAAX prenyl protease 1)	EC50 [4]	EC50 [5]	EC50 [6]	EC50 [7]	IC50 [8]	IC50 (Exodeoxyribonuclease V)
CCc1nc(Nc2ccncc2)c2oc3ccccc3c2n1	6.58 µM (active)	15.5 µM (active)	> 60 µM (not active)	5.23 µM (active)	0.6 µM (active)	> 160 µM (inactive)	2.48 µM (active)	6.45 µM (active)		
COc1ccccc1/C=C1\SC(=S)N(CCC(=O)NNC(=O)c2ccccc2O)C1=O									> 119 µM (inactive)	> 119 µM (inactive)
